Results taken from patent publication US10669283B2, “Compound and pharmacologically acceptable salt thereof” (MEIJI SEIKA PHARMA CO., LTD., priority 2016, dated 2020).

Test system: PDE4
Experiment: PDE4 inhibition, scintillation proximity assay (SPA);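 also: A below 100 nM B 100 to below 1000 nM C 1000 nM or more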
Type: biochemical
Conditions: scintillation proximity assay (SPA); evaluated as classes A, B, C; read-out: PDE4 Inhibitory Activity (concentration for the inhibition rate of 50%)
Description: The PDE4 inhibitory activity was measured using scintillation proximity assay (SPA) as follows. A sample compound dissolved in dimethyl sulfoxide was diluted 1:10 in reaction buffer solution which contained 50 mM of Tris-HCl with pH 7.4, 8.3 mM of MgCl2, 1.7 mM of EGTA, and 3 mg/mL of bovine serum albumin (BSA). Then, 10 μL of the diluted solution was added in a 96-well assay plate. Moreover, 50 μL of PDE4 diluted 1:375 in the reaction buffer solution was added, and then 40 μL of [2,8-^3H]-adenosine-3′,5′-cyclic phosphate triethylammonium salt diluted 1:1000 in the reaction buffer solution was added. The mixture was allowed to stand at room temperature for 120 minutes. Thereafter, […] of RNA binding YSi-SPA beads suspension containing ZnSO4 was added and the mixture was allowed to stand at room temperature for 15 minutes, followed by adsorption of the enzyme reaction product to the beads. After that, the radioactivity was measured using a liquid scintillation counter for a 96-well plate. The mixture without the enzyme preparation added but only the reaction buffer solution added is a blank, and the mixture with the enzyme preparation added and only dimethyl sulfoxide added instead of the sample solution is a control.

| SMILES | IC50 [µM] |
| --- | --- |
| CON=C(C)c1cc(-c2nccs2)c2oc(N3CC4CCC(C3)N4)nc2c1OC(F)(F)F (mixture of isomers) [Example 218, (E)-1-(2-(3,8-diazabicyclo[3.2.1]octan-3-yl)-7-(thiazol-2-yl)-4-(trifluoromethoxy)benzo[d]oxazol-5-yl)ethan-1-one O-methyloxime and (Z)-1-(2-(3,8-diazabicyclo[3.2.1]octan-3-yl)-7-(thiazol-2-yl)-4-(trifluoromethoxy)benzo[d]oxazol-5-yl)ethan-1-one O-methyloxime] | < 0.1 |
| OC(c1cc(-c2nccs2)c2oc(N3CC4CCC(C3)N4)nc2c1)C(F)(F)F (racemic) [Example 137, 1-(2-(3,8-Diazabicyclo[3.2.1]octan-3-yl)-7-(thiazol-2-yl)benzo[d]oxazol-5-yl)-2,2,2-trifluoroethan-1-ol] | < 0.1 |
| CC(O)C(F)(F)Oc1ccc(-c2nccs2)c2oc(N3CC4CC(C3)N4)nc12 (racemic) [Example 250, 1-((2-(3,6-Diazabicyclo[3.1.1]heptan-3-yl)-7-(thiazol-2-yl)benzo[d]oxazol-4-yl)oxy)-1,1-difluoropropan-2-ol] | < 0.1 |
| FC(F)(F)Oc1c(Cl)cc(-c2nccs2)c2oc(N3CC4CCC(C3)N4)nc12 [Example 1, 2-(3,8-Diazabicyclo[3.2.1]octan-3-yl)-5-chloro-7-(thiazol-2-yl)-4-(trifluoromethoxy)benzo[d]oxazole] | < 0.1 |
| FC(F)(F)Oc1c(Cl)cc(-c2nccs2)c2oc(N3CC4CCCC(C3)N4)nc12 [Example 2, 2-(3,9-Diazabicyclo[3.3.1]nonan-3-yl)-5-chloro-7-(thiazol-2-yl)-4-(trifluoromethoxy)benzo[d]oxazole] | < 0.1 |
| FC(F)(F)Oc1c(Cl)cc(-c2nccs2)c2oc(N3CC4COCC(C3)N4)nc12 [Example 4, 7-(5-Chloro-7-(thiazol-2-yl)-4-(trifluoromethoxy)benzo [d]oxazol-2-yl)-3-oxa-7,9-diazabicyclo[3.3.1]nonane] | < 0.1 |
| FC(F)(F)Oc1c(Cl)cc(-c2ccco2)c2oc(N3CC4CCC(C3)N4)nc12 [Example 6, 2-(3,8-Diazabicyclo[3.2.1]octan-3-yl)-5-chloro-7-(furan-2-yl)-4-(trifluoromethoxy)benzo[d]oxazole] | < 0.1 |
| FC(F)(F)Oc1c(Cl)cc(-c2ccccn2)c2oc(N3CC4CCC(C3)N4)nc12 [Example 7, 2-(3,8-Diazabicyclo[3.2.1]octan-3-yl)-5-chloro-7-(pyridin-2-yl)-4-(trifluoromethoxy)benzo[d]oxazole] | < 0.1 |
| FC(F)(F)Oc1c(Cl)cc(-c2ncco2)c2oc(N3CC4CCC(C3)N4)nc12 [Example 9, 2-(3,8-Diazabicyclo[3.2.1]octan-3-yl)-5-chloro-7-(oxazol-2-yl)-4-(trifluoromethoxy)benzo[d]oxazole] | < 0.1 |
| FC(F)(F)c1c(Cl)cc(-c2ccccn2)c2oc(N3CC4CCC(C3)N4)nc12 [Example 11, 2-(3,8-Diazabicyclo[3.2.1]octan-3-yl)-5-chloro-7-(pyridin-2-yl)-4-(trifluoromethyl)benzo[d]oxazole] | < 0.1 |
| FC(F)(F)c1c(Cl)cc(-c2ccccn2)c2oc(N3CC4CC(C3)N4)nc12 [Example 13, 2-(3,6-Diazabicyclo[3.1.1]heptan-3-yl)-5-chloro-7-(pyridin-2-yl)-4-(trifluoromethyl)benzo[d]oxazole] | < 0.1 |
| FC(F)(F)c1c(Cl)cc(-c2ccccn2)c2oc(N3CC4COCC(C3)N4)nc12 [Example 14, 7-(5-Chloro-7-(pyridin-2-yl)-4-(trifluoromethyl)benzo[d]oxazol-2-yl)-3-oxa-7,9-diazabicyclo[3.3.1]nonane] | 0.1 to 1 |
| FC(F)(F)c1c(Cl)cc(-n2cccn2)c2oc(N3CC4CCC(C3)N4)nc12 [Example 15, 2-(3,8-Diazabicyclo[3.2.1]octan-3-yl)-5-chloro-7-(1H-pyrazol-1-yl)-4-(trifluoromethyl)benzo[d]oxazole] | < 0.1 |
| FC(F)(F)c1c(Cl)cc(-n2cccn2)c2oc(N3CC4CCCC(C3)N4)nc12 [Example 16, 2-(3,9-Diazabicyclo[3.3.1]nonan-3-yl)-5-chloro-7-(1H-pyrazol-1-yl)-4-(trifluoromethyl)benzo[d]oxazole] | < 0.1 |
| FC(F)(F)c1c(Cl)cc(-n2cccn2)c2oc(N3CC4COCC(C3)N4)nc12 [Example 18, 7-(5-Chloro-7-(1H-pyrazol-1-yl)-4-(trifluoromethyl)benzo[d]oxazol-2-yl)-3-oxa-7,9-diazabicyclo[3.3.1]nonane] | 0.1 to 1 |
| FC(F)(F)c1c(Cl)cc(-c2nccs2)c2oc(N3CC4COCC(C3)N4)nc12 [Example 19, 7-(5-Chloro-7-(thiazol-2-yl)-4-(trifluoromethyl)benzo[d]oxazol-2-yl)-3-oxa-7,9-diazabicyclo[3.3.1]nonane] | < 0.1 |
| FC(F)(F)c1c(Cl)cc(-c2nccs2)c2oc(N3CC4CCC(C3)N4)nc12 [Example 20, 2-(3,8-Diazabicyclo[3.2.1]octan-3-yl)-5-chloro-7-(thiazol-2-yl)-4-(trifluoromethyl)benzo[d]oxazole] | < 0.1 |
| CC(C)c1cc(-c2nccs2)c2oc(N3CC4CCC(C3)N4)nc2c1 [Example 21, 2-(3,8-Diazabicyclo[3.2.1]octan-3-yl)-5-isopropyl-7-(thiazol-2-yl)benzo[d]oxazole] | < 0.1 |

| SMILES | IC50 [µM] |
| --- | --- |
| CC(C)c1cc(-c2nccs2)c2oc(N3CC4CC(C3)N4)nc2c1 [Example 22] | < 0.1 |
| CC(C)c1cc(-c2nccs2)c2oc(N3CC4COCC(C3)N4)nc2c1 [Example 23, 7-(5-Isopropyl-7-(thiazol-2-yl)benzo[d]oxazol-2-yl)-3-oxa-7,9-diazabicyclo[3.3.1]nonane] | 0.1 to 1 |
| CC(C)c1cc(-c2nccs2)c2oc(N3CC4CCCC(C3)N4)nc2c1 [Example 24, 2-(3,9-Diazabicyclo[3.3.1]nonan-3-yl)-5-isopropyl-7-(thiazol-2-yl)benzo[d]oxazole] | < 0.1 |
| Cc1ccc(-c2nccs2)c2oc(N3CC4CCC(C3)N4)nc12 [Example 25, 2-(3,8-Diazabicyclo[3.2.1]octan-3-yl)-4-methyl-7-(thiazol-2-yl)benzo[d]oxazole] | < 0.1 |
| Cc1ccc(-c2nccs2)c2oc(N3CC4CC(C3)N4)nc12 [Example 26, 2-(3,6-Diazabicyclo[3.1.1]heptan-3-yl)-4-methyl-7-(thiazol-2-yl)benzo[d]oxazole] | < 0.1 |
| Cc1ccc(-c2nccs2)c2oc(N3CC4CCCC(C3)N4)nc12 [Example 27, 2-(3,9-Diazabicyclo[3.3.1]nonan-3-yl)-4-methyl-7-(thiazol-2-yl)benzo[d]oxazole] | < 0.1 |
| FC(F)(F)Oc1ccc(-c2nccs2)c2oc(N3CC4CCC(C3)N4)nc12 [Example 28, 2-(3,8-Diazabicyclo[3.2.1]octan-3-yl)-7-(thiazol-2-yl)-4-(trifluoromethoxy)benzo[d]oxazole] | < 0.1 |
| FC(F)(F)Oc1ccc(-c2nccs2)c2oc(N3CC4CCCC(C3)N4)nc12 [Example 30, 2-(3,9-Diazabicyclo[3.3.1]nonan-3-yl)-7-(thiazol-2-yl)-4-(trifluoromethoxy)benzo[d]oxazole] | < 0.1 |
| FC(F)(F)c1ccc(-c2nccs2)c2oc(N3CC4CCC(C3)N4)nc12 [Example 31, 2-(3,8-Diazabicyclo[3.2.1]octan-3-yl)-7-(thiazol-2-yl)-4-(trifluoromethyl)benzo[d]oxazole] | < 0.1 |
| FC(F)(F)c1ccc(-c2nccs2)c2oc(N3CC4CC(C3)N4)nc12 [Example 32, 2-(3,6-Diazabicyclo[3.1.1]heptan-3-yl)-7-(thiazol-2-yl)-4-(trifluoromethyl)benzo[d]oxazole] | < 0.1 |
| FC(F)(F)c1ccc(-c2nccs2)c2oc(N3CC4CCCC(C3)N4)nc12 [Example 33, 2-(3,9-Diazabicyclo[3.3.1]nonan-3-yl)-7-(thiazol-2-yl)-4-(trifluoromethyl)benzo[d]oxazole] | < 0.1 |
| CC(=O)Nc1ccc(-c2nccs2)c2oc(N3CC4CCCC(C3)N4)nc12 [Example 34, N-(2-(3,9-Diazabicyclo[3.3.1]nonan-3-yl)-7-(thiazol-2-yl)benzo[d]oxazol-4-yl)acetamide] | < 0.1 |
| CC(=O)Nc1ccc(-c2nccs2)c2oc(N3CC4CC(C3)N4)nc12 [Example 35, N-(2-(3,6-diazabicyclo[3.1.1]heptan-3-yl)-7-(thiazol-2-yl)benzo[d]oxazol-4-yl)acetamide] | 0.1 to 1 |
| Clc1ccc(-c2nccs2)c2oc(N3CC4CCC(C3)N4)nc12 [Example 36, 2-(3,8-Diazabicyclo[3.2.1]octan-3-yl)-4-chloro-7-(thiazol-2-yl)benzo[d]oxazole] | < 0.1 |
| Clc1ccc(-c2nccs2)c2oc(N3CC4CC(C3)N4)nc12 [Example 37, 2-(3,6-Diazabicyclo[3.1.1]heptan-3-yl)-4-chloro-7-(thiazol-2-yl)benzo[d]oxazole] | < 0.1 |
| Clc1ccc(-c2nccs2)c2oc(N3CC4CCCC(C3)N4)nc12 [Example 38, 2-(3,9-Diazabicyclo[3.3.1]nonan-3-yl)-4-chloro-7-(thiazol-2-yl)benzo[d]oxazole] | < 0.1 |
| CSc1cc(-c2nccs2)c2oc(N3CC4CCC(C3)N4)nc2c1 [Example 39, 2-(3,8-Diazabicyclo[3.2.1]octan-3-yl)-5-(methylthio)-7-(thiazol-2-yl)benzo[d]oxazole] | < 0.1 |
| CSc1cc(-c2nccs2)c2oc(N3CC4CC(C3)N4)nc2c1 [Example 40, 2-(3,6-Diazabicyclo[3.1.1]heptan-3-yl)-5-(methylthio)-7-(thiazol-2-yl)benzo[d]oxazole] | < 0.1 |
